According to US4732969A, “Des-19-leucine, 20-glutamine-calcitonin” (Armour Pharmaceutical Corporation, priority 1986, dated 1988):
Where a SMILES comes first, the peptide text is derived from it. Bridges are numbered along the chain shown (N, C = ends).

What was measured:
[1] = tested on: serum calcium concentration
Method: Biological Assay Of Calcitonin Analogs In Vivo
Rats were divided into four groups of seven animals, and each group was assigned at random to a dose of standard or test solution. Low and high doses were chosen from the linear portion of the dose-response curve. For the salmon calcitonin standard, the values were 0.7 and 2.1 ng. peptide/100 g. body weight (BW). This dose approximates 3 and 9 MU/100 g. BW. Peptides were given by subcutaneous injection (0.2 ml/100 g. BW) and blood was withdrawn 1 hour later for serum calcium determination. Sera are processed and analyzed within two hours of collection. Results were analyzed within two hours of collection.

[2] = literature value, Experientia 32(9), 1104-1106 (1976); cited from earlier work

Row | Compound | hypocalcemic potency [2] | other results
1 | CC(C)C[C@H](NC(=O)[C@H](CCCCN)NC(=O)CNC(=O)[C@H](CC(C)C)NC(=O)[C@@H](NC(=O)[C@@H]1CSSC[C@H](N)C(=O)N[C@@H](CO)C(=O)N[C@@H](CC(N)=O)C(=O)N[C@@H](CC(C)C)C(=O)N[C@@H](CO)C(=O)N[C@@H]([C@@H](C)O)C(=O)N1)C(C)C)C(=O)N[C@@H](CO)C(=O)N[C@@H](CCC(N)=O)C(=O)N[C@@H](CCC(=O)O)C(=O)N[C@@H](CC(C)C)C(=O)N[C@@H](Cc1c[nH]cn1)C(=O)N[C@@H](CCCCN)C(=O)N[C@H](C(=O)N[C@@H](Cc1ccc(O)cc1)C(=O)N1CCC[C@H]1C(=O)N[C@@H](CCCNC(=N)N)C(=O)N[C@H](C(=O)N[C@@H](CC(N)=O)C(=O)N[C@H](C(=O)NCC(=O)N[C@@H](CO)C(=O)NCC(=O)N[C@H](C(=O)N1CCC[C@H]1C(N)=O)[C@@H](C)O)[C@@H](C)O)[C@@H](C)O)[C@@H](C)O [des-Leu^19 -Gln^20 -SCT, des-19-leucine, 20-glutamine-salmon calcitonin] (H-CSNLSTCVLGKLSQELHKTYPRTNTGSGTP-NH2; disulfide 1-7) | – | biological potency ([1]; rat, in vivo, sc): 6900 IU/mg
2 | CC(C)C[C@H](NC(=O)[C@H](CCCCN)NC(=O)CNC(=O)[C@H](CC(C)C)NC(=O)[C@@H](NC(=O)[C@@H]1CSSC[C@H](N)C(=O)N[C@@H](CO)C(=O)N[C@@H](CC(N)=O)C(=O)N[C@@H](CC(C)C)C(=O)N[C@@H](CO)C(=O)N[C@@H]([C@@H](C)O)C(=O)N1)C(C)C)C(=O)N[C@@H](CO)C(=O)N[C@@H](CCC(N)=O)C(=O)N[C@@H](CCC(=O)O)C(=O)N[C@@H](CC(C)C)C(=O)N[C@@H](Cc1c[nH]cn1)C(=O)N[C@@H](CCCCN)C(=O)N[C@@H](CC(C)C)C(=O)N[C@@H](CCC(N)=O)C(=O)N[C@H](C(=O)N[C@@H](Cc1ccc(O)cc1)C(=O)N1CCC[C@H]1C(=O)N[C@@H](CCCNC(=N)N)C(=O)N[C@H](C(=O)N[C@@H](CC(N)=O)C(=O)N[C@H](C(=O)NCC(=O)N[C@@H](CO)C(=O)NCC(=O)N[C@H](C(=O)N1CCC[C@H]1C(N)=O)[C@@H](C)O)[C@@H](C)O)[C@@H](C)O)[C@@H](C)O [standard salmon calcitonin, salmon calcitonin] | – | potency content of the standard ([1]; standard used in the assay, independently determined): greater than 4,000 IU/mg
3 | (1,7-α-L-aminosuberic acid)eel calcitonin | about 3400 IU/mg | –
4 | eel calcitonin [synthetic eel calcitonin] | around 4300 IU/mg | –
